# Data published in patent US20220395549A1, “COMPOSITIONS OF THE OLEA EUROPAEA V. SYLVESTRIS WITH ANTIMICROBIAL EFFICACY” (TAPROGGE GMBH, priority 2019, published 2022).
# Experiments:
# test microorganisms = details: cited from earlier work
# S. aureus ATCC 6538 = assay: quantitative suspension assay of mono-substances; assay type: cell-based, Staphylococcus aureus; details: initial cell load 2.0 × 10^5 CFU/ml
# Experimental: A stock solution was prepared by adding 0.1 ml methanol to 10.48 mg of hydroxytyrosol. After dissolving of the compound, the solution was quantitatively transferred into 4.9 ml water for injection (WFI), effective concentration of hydroxytyrosol: 2.0 mg/ml.
# Using the stock solution, five (5) concentrations of hydroxytyrosol in a geometric series of 2 mg hydroxytyrosol/ml to 0.125 mg hydroxytyrosol/ml were tested in a quantitative suspension assay.
# 2 ml of the stock solution and the dilutions (V1 to V4), respectively, and a methanol-solution of 2% as a positive control were inoculated with 0.1 ml of a test suspension of S. aureus ATCC 6538, adjusted to about 2.0×10^5 CFU/0.1 ml, resulting in about 100,000 CFU/ml in the individual assays.
# Samples (0.1 ml) were then taken at t 0, 12, 30, and 60 minutes as well as t 24 48, and 72 hours after inoculation and culturing at between 20-25° C., and were diluted with 0.9 ml of 0.9% NaCl solution. The samples were plated on blood agar plates, and incubated up to 5 days at between 30-35° C.
# A stock solution was prepared at a concentration of 2 mg/ml of oleocanthal. The compound was dissolved by in ethanol (99.8%) and WFI was added.
# Using the stock solution, concentrations of oleocanthal in a geometric series of 1 mg oleocanthal/ml to 0.125 mg oleocanthal/ml were tested in a quantitative suspension assay.
# 2 ml of the stock solution and the dilutions (V1 to V4), respectively, and a ethanol-solution of 2.85% as a positive control were inoculated with 0.055 ml of a test suspension of S. aureus ATCC 6538, adjusted to about 3.6×10^5 CFU/0.1 ml, resulting in about 99,000 CFU/ml in the individual assays.
# A stock solution was prepared at a concentration of 1 mg/ml of oleacin. The compound was dissolved by in ethanol (99.8%) and WFI was added.
# Using the stock solution, concentrations of oleacin at 0.25 mg oleacin/ml and 0.125 mg oleacin/ml were tested in a quantitative suspension assay.
# 2 ml of the stock solution and the dilutions (V1 and V2), respectively, and a ethanol-solution of 0.44% as a positive control were inoculated with 0.055 ml of a test suspension of S. aureus ATCC 6538, adjusted to about 3.5×10^5 CFU/0.1 ml, resulting in about 99,000 CFU/ml in the individual assays.
# A stock solution was prepared by adding 0.1 ml chloroform to 25 mg of uvaol. After dissolving of the compound, the solution was quantitatively transferred into 12.4 ml water for injection (WFI), effective concentration of uvaol: 2.0 mg/ml.
# Using the stock solution, five (5) concentrations of uvaol in a geometric series of 2 mg uvaol/ml to 0.125 mg uvaol/ml were tested in a quantitative suspension assay.
# 2 ml of the stock solution and the dilutions (V1 to V4), respectively, and a chloroform-solution of 0.8% as a positive control were inoculated with 0.1 ml of a test suspension of S. aureus ATCC 6538, adjusted to about 2.0×10^5 CFU/0.1 ml, resulting in about 100,000 CFU/ml in the individual assays.
# A stock solution was prepared by adding 0.1 ml chloroform to 10.45 mg of erythrodiol. After dissolving of the compound, the solution was quantitatively transferred into 4.9 ml water for injection (WFI), effective concentration of erythrodiol: 2.0 mg/ml.
# 2 ml of the stock solution and the dilutions (V1 to V4), respectively, and a chloroform-solution of 2% as a positive control were inoculated with 0.1 ml of a test suspension of S. aureus ATCC 6538, adjusted to about 3.6×10^5 CFU/0.1 ml, resulting in about 100.000 CFU/ml in the individual assays.
smiles,measurement,setting,value
COc1cc(C(=O)O)cc(OC)c1O [syringic acid],antimicrobial activities of phenolic compounds,test microorganisms,ineffective
C[C@H]1[C@H](C)CC[C@]2(CO)CC[C@]3(C)C(=CC[C@@H]4[C@@]5(C)CC[C@H](O)C(C)(C)[C@@H]5CC[C@]43C)[C@H]12 [uvaol],Number of CFUs,"S. aureus ATCC 6538; 0.125 Uva/ml, t 0 min",6.3 × 10^4 CFU/ml
same,Number of CFUs,"S. aureus ATCC 6538; 0.125 Uva/ml, t 12 min",5.7 × 10^4 CFU/ml
same,Number of CFUs,"S. aureus ATCC 6538; 0.125 Uva/ml, t 30 min",7.6 × 10^4 CFU/ml
same,Number of CFUs,"S. aureus ATCC 6538; 0.125 Uva/ml, t 60 min",6.6 × 10^4 CFU/ml
same,Number of CFUs,"S. aureus ATCC 6538; 0.125 Uva/ml, t 24 h",4.7 × 10^3 CFU/ml
same,Number of CFUs,"S. aureus ATCC 6538; 0.125 Uva/ml, t 48 h",4.2 × 10^3 CFU/ml
same,Number of CFUs,"S. aureus ATCC 6538; 0.125 Uva/ml, t 72 h",8.2 × 10^2 CFU/ml
same,Number of CFUs,"S. aureus ATCC 6538; 0.25 Uva/ml, t 0 min",5.3 × 10^4 CFU/ml
same,Number of CFUs,"S. aureus ATCC 6538; 0.25 Uva/ml, t 12 min",8.1 × 10^4 CFU/ml
same,Number of CFUs,"S. aureus ATCC 6538; 0.25 Uva/ml, t 30 min",5.3 × 10^4 CFU/ml
same,Number of CFUs,"S. aureus ATCC 6538; 0.25 Uva/ml, t 60 min",5.7 × 10^4 CFU/ml
same,Number of CFUs,"S. aureus ATCC 6538; 0.25 Uva/ml, t 24 h",<100 CFU/ml
same,Number of CFUs,"S. aureus ATCC 6538; 0.25 Uva/ml, t 48 h",<100 CFU/ml
same,Number of CFUs,"S. aureus ATCC 6538; 0.25 Uva/ml, t 72 h",<100 CFU/ml
same,Number of CFUs,"S. aureus ATCC 6538; 0.5 Uva/ml, t 0 min",7.0 × 10^4 CFU/ml
same,Number of CFUs,"S. aureus ATCC 6538; 0.5 Uva/ml, t 12 min",7.8 × 10^4 CFU/ml
same,Number of CFUs,"S. aureus ATCC 6538; 0.5 Uva/ml, t 30 min",7.6 × 10^4 CFU/ml
same,Number of CFUs,"S. aureus ATCC 6538; 0.5 Uva/ml, t 60 min",5.7 × 10^4 CFU/ml
same,Number of CFUs,"S. aureus ATCC 6538; 0.5 Uva/ml, t 24 h",<100 CFU/ml
same,Number of CFUs,"S. aureus ATCC 6538; 0.5 Uva/ml, t 48 h",<100 CFU/ml
same,Number of CFUs,"S. aureus ATCC 6538; 0.5 Uva/ml, t 72 h",<100 CFU/ml
same,Number of CFUs,"S. aureus ATCC 6538; 1.0 Uva/ml, t 0 min",7.8 × 10^4 CFU/ml
same,Number of CFUs,"S. aureus ATCC 6538; 1.0 Uva/ml, t 12 min",7.8 × 10^4 CFU/ml
same,Number of CFUs,"S. aureus ATCC 6538; 1.0 Uva/ml, t 30 min",7.4 × 10^4 CFU/ml
same,Number of CFUs,"S. aureus ATCC 6538; 1.0 Uva/ml, t 60 min",5.9 × 10^4 CFU/ml
same,Number of CFUs,"S. aureus ATCC 6538; 1.0 Uva/ml, t 24 h",<100 CFU/ml
same,Number of CFUs,"S. aureus ATCC 6538; 1.0 Uva/ml, t 48 h",<100 CFU/ml
same,Number of CFUs,"S. aureus ATCC 6538; 1.0 Uva/ml, t 72 h",<100 CFU/ml
same,Number of CFUs,"S. aureus ATCC 6538; 2.0 Uva/ml, t 0 min",7.2 × 10^4 CFU/ml
same,Number of CFUs,"S. aureus ATCC 6538; 2.0 Uva/ml, t 12 min",5.9 × 10^4 CFU/ml
same,Number of CFUs,"S. aureus ATCC 6538; 2.0 Uva/ml, t 30 min",7.0 × 10^4 CFU/ml
same,Number of CFUs,"S. aureus ATCC 6538; 2.0 Uva/ml, t 60 min",7.0 × 10^4 CFU/ml
same,Number of CFUs,"S. aureus ATCC 6538; 2.0 Uva/ml, t 24 h",<100 CFU/ml
same,Number of CFUs,"S. aureus ATCC 6538; 2.0 Uva/ml, t 48 h",<100 CFU/ml
same,Number of CFUs,"S. aureus ATCC 6538; 2.0 Uva/ml, t 72 h",<100 CFU/ml
